In one experiment the test system is Tubulin. Nature of the experiment: Inhibition of tubulin polymerisation. The format is biochemical. Particulars: tubulin concentration 10 μM; extent of assembly after 20 min incubation at 30° C.; read-out: Inhib. Tubulin polymerisation IC50.
The test system of another experiment is MCF-7, cancer cell line. In words: MCF-7 growth inhibition (SRB or Sysmex cell counting). The format is cell-based. Particulars: SRB or CC assay.
The test system of experiment [1] is Human umbilical vein endothelial cells. In words: Proliferation Assay - activated endothelium (MTT). The format is cell-based. Particulars: HUVEC, range within which the IC50 value falls, 48 hrs culture, read-out: Inhib activated HUVECs IC50. Here is the method:
Proliferation Assay—activated endothelium: Human umbilical vein endothelial cells (CC-2519, Clonetics) were plated at 2500 cells/well in EGM2 (CC-3162, Clonetics) in a 96 well plate in triplicate. Cells were cultured overnight at 37° C. 5% CO2. Medium was subsequently replaced with fresh medium including the compound or negative control. Cells were cultured for a period of 48 hrs. An MTT assay was performed to measure changes in cell numbers. Briefly, 20 μl of MTT reagent was added to cells containing 100 μl of EGM2 and incubated at 37° C. for 2 hours. Absorbance was measured at 492 nm.

Setting [2] is: Homo sapiens, MCF7, concentration required to inhibit net cell growth by 50%.
Setting [3] is: concentration required to inhibit net cell growth by 50%.

Where only a bound is given, the exact number is not on record here.

What is called IC50 is the concentration that gives 50% inhibition. For `COc1ccc(-c2oc3c(O)c(OC)ccc3c2C(=O)c2cc(OC)c(OC)c(OC)c2)cc1O` [Entry 5, reference compound], the IC50 is less than 4 µM in the experiment on Tubulin; 0.0039 µM in the experiment with MCF-7, cancer cell line (setting [2]); 0.0041 µM in the experiment on MCF-7, cancer cell line (setting [3]).

On to `COc1cc(C(=O)c2c(-c3cnn(C)c3)oc3c(O)c(OC)ccc23)cc(OC)c1OC` [Entry 14, 2-(4-N-Methylpyrazolyl)-3-(3,4,5-trimethoxybenzoyl)-6-methoxy-7-hydroxy-benzofuran], for which the results for the IC50 (in the experiment on Tubulin; in experiment [1]) were 1.3 ± 0.07 µM and 0.0001 to 0.001 µM, respectively.

As for `COc1ccc2c(C(=O)c3cc(OC)c(OC)c(OC)c3)coc2c1` [Entry 6, reference compound], the half-inhibitory concentration (IC50) in the experiment on Tubulin is 1.6 ± 0.2 µM; in the experiment with MCF-7, cancer cell line (setting [2]) it was 0.06 µM; with MCF-7, cancer cell line (setting [3]), 0.05 µM.

Turning to `COc1cc(C(=O)c2c(-n3cncn3)oc3c(O)c(OC)ccc23)cc(OC)c1OC` [Entry 43, 2-(1,2,4-triazol-1-yl)-7-hydroxy-3-(3,4,5-trimethoxybenzoyl)-6-methoxy-benzo[b]furan], the half-maximal inhibitory concentration (IC50) in the experiment with MCF-7, cancer cell line (setting [2]) was 0.00037 µM; in the experiment with MCF-7, cancer cell line (setting [3]) it was 0.00032 µM; in experiment [1], 0.0001 to 0.001 µM.

On to `COc1ccc2c(C(=O)c3cc(OC)c(OC)c(OC)c3)c(-c3c[nH]cn3)oc2c1` [Entry 45, [2-(1H-Imidazol-4-yl)-6-methoxy-benzofuran-3-yl]-(3,4,5-trimethoxyphenyl)-methanone], for which the half-inhibitory concentration (IC50) was 0.0045 µM in the experiment with MCF-7, cancer cell line (setting [2]); 0.0057 µM in the experiment with MCF-7, cancer cell line (setting [3]); 0.001 to 0.01 µM in experiment [1].

For the molecule `COc1ccc2c(/C(=N/Nc3ccc([N+](=O)[O-])cc3[N+](=O)[O-])c3cc(OC)c(OC)c(OC)c3)c(-c3cnn(C)c3)oc2c1` [Entry 56, (E/Z)-6-Methoxy-2-(1-methyl-1H-pyrazol-4-yl)-3-(3,4,5-trimethoxybenzoyl)benzo[b]furan 2,4-dinitrophenylhydrazone], the IC50 with MCF-7, cancer cell line (setting [2]) is greater than 1 µM; in experiment [1] it was 0.1 to 1 µM.

Regarding `COc1ccc(-c2oc3c(O)c(OC)ccc3c2C(=O)c2cc(OC)c(OC)c(OC)c2)cc1` [Entry 4, reference compound], the IC50 with Tubulin was 1.5 ± 0.4 µM; with MCF-7, cancer cell line (setting [2]), 0.001 to 0.002 µM.

`COc1ccc2c(/C(=N/O)c3cc(OC)c(OC)c(OC)c3)c(-c3cnn(C)c3)oc2c1` [Entry 55, (E/Z)-6-methoxy-2-(1-methyl-1H-pyrazol-4-yl)-3-(3,4,5-trimethoxybenzoyl)benzo[b]furan oxime]: the concentration for half-maximal inhibition (IC50) lay in the range of 0.1 to 1 µM with MCF-7, cancer cell line (setting [2]) and 0.1 to 1 µM in experiment [1].

On to `COc1cc(C(=O)c2c(-c3ccco3)oc3c(O)c(OC)ccc23)cc(OC)c1OC` [Entry 36, 2-(2-furanyl)-7-hydroxy-6-methoxy-3-(3,4,5-trimethoxybenzoyl)benzo[b]furan], for which the concentration for half-maximal inhibition (IC50) was 8.7 ± 0.8 µM in the experiment with Tubulin and 0.001 to 0.01 µM in experiment [1].

Regarding `CCOC(=O)Cn1cc(-c2oc3cc(OC)ccc3c2C(=O)c2cc(OC)c(OC)c(OC)c2)cn1` [Entry 30, {4-[6-Methoxy-3-(3,4,5-trimethoxy-benzoyl)-benzofuran-2-yl]-pyrazol-1-yl}-acetic acid ethyl ester], the 50% inhibitory concentration (IC50) with MCF-7, cancer cell line (setting [2]) is 0.029 µM; in the experiment with MCF-7, cancer cell line (setting [3]), 0.015 µM; in experiment [1] it was 0.01 to 0.1 µM.

On to `COc1cc(Sc2c(-c3cnn(C)c3)oc3c(N)c(OC)ccc23)cc(OC)c1OC` [Entry 54, 7-Amino-6-methoxy-2-(1-methyl-1H-pyrazol-4-yl)-3-(3,4,5-trimethoxyphenylthio)benzo[b]furan], for which the IC50 in the experiment with MCF-7, cancer cell line (setting [2]) fell in the range of 0.0001 to 0.001 µM; in experiment [1], 0.001 to 0.01 µM.

Consider `COc1ccc2c(C(=O)c3cc(OC)c(OC)c(OC)c3)c(-c3ccco3)oc2c1` [Entry 52, 2-(2-Furyl)-6-methoxy-3-(3,4,5-trimethoxybenzoyl)benzo[b]furan], for which the IC50 was 0.0069 µM in the experiment with MCF-7, cancer cell line (setting [2]); 0.0079 µM with MCF-7, cancer cell line (setting [3]); 0.001 to 0.01 µM in experiment [1].

For `COc1ccc(-n2cc(-c3oc4cc(OC)ccc4c3C(=O)c3cc(OC)c(OC)c(OC)c3)cn2)cc1` [Entry 40, {6-Methoxy-2-[1-(4-methoxy-phenyl)-1H-pyrazol-4-yl]-benzofuran-3-yl}-(3,4,5-trimethoxyphenyl)-methanone], the half-inhibitory concentration (IC50) in the experiment with MCF-7, cancer cell line (setting [2]) is 0.36 µM; in the experiment on MCF-7, cancer cell line (setting [3]), 0.35 µM; in experiment [1] it was 0.1 to 1 µM.

With `COc1ccc2c(C(=O)c3cc(OC)c(OC)c(OC)c3)c(-c3cn[nH]c3)oc2c1` [Entry 32, 6-Methoxy-2-(1H-pyrazol-4-yl)-3-(3,4,5-trimethoxybenzoyl)benzo[b]furan], the IC50 in the experiment with MCF-7, cancer cell line (setting [2]) is 0.0036 µM; with MCF-7, cancer cell line (setting [3]) it was 0.004 µM; in experiment [1] it was 0.001 to 0.01 µM.

In the case of `COc1cc(C(=O)c2c(-n3ccnc3)oc3c(O)c(OC)ccc23)cc(OC)c1OC` [Entry 27, 2-(N-imidazolyl)-7-hydroxy-3-(3,4,5-trimethoxybenzoyl)-6-methoxy-benzo[b]furan], the half-inhibitory concentration (IC50) with MCF-7, cancer cell line (setting [2]) was 0.0016 µM; in the experiment with MCF-7, cancer cell line (setting [3]) it was less than 0.001 µM; in experiment [1], 0.001 to 0.01 µM.

As for `COc1cc(C(=O)c2c(-c3ccc(C=O)s3)oc3c(O)c(OC)ccc23)cc(OC)c1OC` [Entry 37, 2-(2-thiophene-5-carbaldehyde)-7-hydroxy-3-(3,4,5-trimethoxybenzoyl)-6-methoxy-benzo[b]furan], the IC50 with MCF-7, cancer cell line (setting [2]) is 0.0018 µM; in the experiment with MCF-7, cancer cell line (setting [3]), 0.0023 µM; in experiment [1], 0.001 to 0.01 µM.

Turning to `COc1ccc2c(C(=O)c3cc(OC)c(OC)c(OC)c3)c(-c3cnn(CC(N)=O)c3)oc2c1` [Entry 31, 2-{4-[6-Methoxy-3-(3,4,5-trimethoxy-benzoyl)-benzo[b]furan-2-yl]-pyrazol-1-yl}-acetamide], the 50% inhibitory concentration (IC50) in the experiment with MCF-7, cancer cell line (setting [2]) is 0.0038 µM; with MCF-7, cancer cell line (setting [3]), 0.004 µM; in experiment [1] it was 0.001 to 0.01 µM.

Regarding `COc1ccc2c(C(=O)c3cc(OC)c(OC)c(OC)c3)c(N3CCN(C)CC3)oc2c1` [Entry 46, 2-(4-N-Methylpiperazino)-3-(3,4,5-trimethoxybenzoyl)-6-methoxy-benzo[b]furan], the half-maximal inhibitory concentration (IC50) is 0.2 µM in the experiment on MCF-7, cancer cell line (setting [2]); 0.23 µM in the experiment with MCF-7, cancer cell line (setting [3]); 0.1 to 1 µM in experiment [1].

Consider `COc1ccc2c(C(=O)c3cc(OC)c(OC)c(OC)c3)c(-c3cnn(Cc4ccccc4)c3)oc2c1` [Entry 17, [2-(1-Benzyl-1H-pyrazol-4-yl)-6-methoxy-benzofuran-3-yl]-(3,4,5-trimethoxyphenyl)-methanone], for which the half-maximal inhibitory concentration (IC50) in the experiment on MCF-7, cancer cell line (setting [2]) was 0.11 µM; with MCF-7, cancer cell line (setting [3]), 0.083 µM; in experiment [1], 0.1 to 1 µM.

With `COc1ccc2c(C(=O)c3cc(OC)c(OC)c(OC)c3)c(-c3cnn(CC(=O)O)c3)oc2c1` [Entry 29, Sodium {4-[6-Methoxy-3-(3,4,5-trimethoxy-benzoyl)-benzo[b]furan-2-yl]-pyrazol-1-yl}-acetate], the 50% inhibitory concentration (IC50) amounted to 0.9 µM in the experiment on MCF-7, cancer cell line (setting [2]); 0.54 µM with MCF-7, cancer cell line (setting [3]); 0.1 µM in experiment [1].

With `COc1cc(C(=O)c2c(-c3cnn(C)c3)oc3c(F)c(OC)ccc23)cc(OC)c1OC` [Entry 41], the IC50 is 0.0042 µM with MCF-7, cancer cell line (setting [2]); 0.0036 µM in the experiment on MCF-7, cancer cell line (setting [3]); 0.001 to 0.01 µM in experiment [1].

Turning to `COc1cc(C(=O)c2c(-n3cccc3)oc3c(O)c(OC)ccc23)cc(OC)c1OC` [Entry 38, 2-(1-pyrolyl)-7-hydroxy-3-(3,4,5-trimethoxybenzoyl)-6-methoxy-benzo[b]furan], the IC50 was 0.0014 µM in the experiment with MCF-7, cancer cell line (setting [2]); 0.0021 µM in the experiment with MCF-7, cancer cell line (setting [3]); 0.001 to 0.01 µM in experiment [1].

On to `COc1ccc2c(C(=O)c3cc(OC)c(OC)c(OC)c3)c(-c3ccsc3)oc2c1` [Entry 18, 2-(3-Thiophenyl)-3-(3,4,5-trimethoxybenzoyl)-6-methoxy-benzo[b]furan], for which the IC50 with MCF-7, cancer cell line (setting [2]) was 0.017 µM; in the experiment with MCF-7, cancer cell line (setting [3]) it was 0.022 µM; in experiment [1], 0.01 to 0.1 µM.
